Test results taken from patent US20220184072A1 (priority 2019, published 2022).
“And” between values parts separate entries of the source, which are not always exact repeats. Identical values can stand only once. Like-named read-outs stand apart in the source and are kept apart here.

Legend:
[1] = system: TH (tyrosine hydroxylase); assay: CNS phosphoprotein profile, TH; assay type: in vivo; conditions: mice nucleus accumbens; Example 1 3 mg/kg at 30 or 60 minutes; haloperidol 2 mg/kg
Method: (§1) A comprehensive molecular phosphorylation study is also carried out to examine the central nervous system (CNS) profile of the compound of Example 1. The extent of protein phosphorylation for selected key central nervous system proteins is measured in mice nucleus accumbens.
(§2) Mice were killed 30 minutes to 2 hours post-injection by focused microwave cranial irradiation, which preserves brain phosphoprotein as it exists at the time of death. Nucleus accumbens was then dissected from each mouse brain, sliced and frozen in liquid nitrogen. Samples were further prepared for phosphoprotein analysis via SDS-PAGE electrophoresis followed by phosphoprotein-specific immunoblotting, as described in Zhu H, et al., Brain Res. 2010 Jun. 25; 1342:11-23. Phosphorylation at each site was quantified, normalized to total levels of the protein (non-phosphorylated), and expressed as percent of the level of phosphorylation in vehicle-treated control mice.

NR2B = assay: CNS phosphoprotein profile, NR2B; assay type: in vivo; conditions: mice nucleus accumbens, 3 mg/kg, 30-60 minutes
Method: as §1, §2

C57 mice = conditions: mouse, in vivo
STZ-diabetic rats = assay: STZ-rat model, mechanical (pressure) stimuli; assay type: in vivo
Method: The compound of Example 1 is also tested in an STZ-rat model of neuropathic pain. Briefly, adult female rats are made diabetic by treatment with streptozotocin (STZ), an alkylating neoplastic agent which is particularly toxic to the insulin-producing beta cells of the pancreas. The resulting type-I diabetes in the rats leads to the development of diabetic neuropathy over a 3 to 6-week period. […] Once diabetic neuropathy has been induced, the rats may be treated to determine the analgesic effect of compounds.
Paw mechanical response threshold is also a clinical assessment of allodynia to light touch, but it relies on the observed response to pressure (force) applied to a paw.
This test is performed by measuring the static applied force threshold (pressure) for paw removal, as described above.

ZFD rats [2] = assay: ZFD rat model, manual von Frey (tactile); assay type: in vivo; parameters: unit not given here
ZFD rats [3] = assay: ZFD rat model, paw formalin test; assay type: in vivo; conditions: s.c. or i.t., at the end of the study
From the text: Paw formalin test: This test enables discrimination of pain driven by primary afferent input (phase 1) versus spinal sensitization and amplifications of primary afferent input (phase 2). There is, however, no clinical equivalent to this test. The method used here is described in detail in Calcutt (2004), supra.

## O=C1CN2c3c(cccc3[C@@H]3CN(CCCOc4ccc(F)cc4)CC[C@@H]32)N1 [Example 1, (6bR,10aS)-8-(3-(4-fluorophenoxy)propyl)-6b,7,8,9,10,10a-hexahydro-1H-pyrido[3′,4′:4,5]pyrrolo[1,2,3-de]quinoxalin-2(3H)-one]
[1]
  increase in TH phosphorylation at Ser40: no significant effect
NR2B
  NR2B phosphorylation at Tyr1472: no significant effect
C57 mice; po, 3 mg/kg
  Mean Behavior Rating (0-4): 0.9 and 0.8 and 1.5
C57 mice; sc, 1 mg/kg
  Mean Behavior Rating (0-4): 1.0 and 1.9 and 1.1
STZ-diabetic rats; 1 mg/kg s.c., 4 hours (peak)
  withdrawal force threshold: about 40 g
STZ-diabetic rats; 1 mg/kg s.c., 6 hours
  withdrawal force threshold: about 35 g
STZ-diabetic rats; 3 mg/kg s.c., 2 hours (peak)
  withdrawal force threshold: about 45 g
STZ-diabetic rats; 3 mg/kg s.c., 6 hours
  withdrawal force threshold: about 25 g
STZ-diabetic rats; 10 mg/kg s.c., 1 hour
  withdrawal force threshold: about 60 g
STZ-diabetic rats; 10 mg/kg s.c., 2 hours to 4 hours
  withdrawal force threshold: 45 to 50 g
STZ-diabetic rats; 10 mg/kg s.c., 6 hours
  withdrawal force threshold: about 35 g
ZFD rats [2]; Control rats, 10 μg i.t., 0 hr
  Manual von Frey, threshold for paw withdrawal: 11.90
ZFD rats [2]; Control rats, 10 μg i.t., 1 hr
  Manual von Frey, threshold for paw withdrawal: 13.90
ZFD rats [2]; Control rats, 10 μg i.t., 2 hr
  Manual von Frey, threshold for paw withdrawal: 14.14
ZFD rats [2]; Control rats, 10 μg i.t., 4 hr
  Manual von Frey, threshold for paw withdrawal: 13.67
ZFD rats [2]; Control rats, 10 mg/kg s.c., 0 hr
  Manual von Frey, threshold for paw withdrawal: 13.98
ZFD rats [2]; Control rats, 10 mg/kg s.c., 1 hr
  Manual von Frey, threshold for paw withdrawal: 12.28
ZFD rats [2]; Control rats, 10 mg/kg s.c., 2 hr
  Manual von Frey, threshold for paw withdrawal: 13.93
ZFD rats [2]; Control rats, 10 mg/kg s.c., 4 hr
  Manual von Frey, threshold for paw withdrawal: 13.45
ZFD rats [2]; ZFD rats, 1 μg i.t., 0 hr
  Manual von Frey, threshold for paw withdrawal: 2.06
ZFD rats [2]; ZFD rats, 1 μg i.t., 1 hr
  Manual von Frey, threshold for paw withdrawal: 2.28
ZFD rats [2]; ZFD rats, 1 μg i.t., 4 hr
  Manual von Frey, threshold for paw withdrawal: 4.25
ZFD rats [2]; ZFD rats, 3 μg i.t., 0 hr
  Manual von Frey, threshold for paw withdrawal: 5.78
ZFD rats [2]; ZFD rats, 3 μg i.t., 1 hr
  Manual von Frey, threshold for paw withdrawal: 9.68
ZFD rats [2]; ZFD rats, 3 μg i.t., 2 hr
  Manual von Frey, threshold for paw withdrawal: 12.11
ZFD rats [2]; ZFD rats, 3 μg i.t., 4 hr
  Manual von Frey, threshold for paw withdrawal: 7.01
ZFD rats [2]; ZFD rats, 10 μg i.t., 0 hr
  Manual von Frey, threshold for paw withdrawal: 1.92
ZFD rats [2]; ZFD rats, 10 μg i.t., 1 hr
  Manual von Frey, threshold for paw withdrawal: 8.53
ZFD rats [2]; ZFD rats, 10 μg i.t., 2 hr
  Manual von Frey, threshold for paw withdrawal: 11.57
ZFD rats [2]; ZFD rats, 10 μg i.t., 4 hr
  Manual von Frey, threshold for paw withdrawal: 4.77
ZFD rats [2]; ZFD rats, 1 mg/kg s.c., 1 hr
  Manual von Frey, threshold for paw withdrawal: 2.61
ZFD rats [2]; ZFD rats, 1 mg/kg s.c., 2 hr
  Manual von Frey, threshold for paw withdrawal: 1.70
ZFD rats [2]; ZFD rats, 1 mg/kg s.c., 4 hr
  Manual von Frey, threshold for paw withdrawal: 2.07
ZFD rats [2]; ZFD rats, 3 mg/kg s.c., 0 hr
  Manual von Frey, threshold for paw withdrawal: 2.22
ZFD rats [2]; ZFD rats, 3 mg/kg s.c., 1 hr
  Manual von Frey, threshold for paw withdrawal: 6.48
ZFD rats [2]; ZFD rats, 3 mg/kg s.c., 2 hr
  Manual von Frey, threshold for paw withdrawal: 10.15
ZFD rats [2]; ZFD rats, 10 mg/kg s.c., 0 hr
  Manual von Frey, threshold for paw withdrawal: 1.71
ZFD rats [2]; ZFD rats, 10 mg/kg s.c., 1 hr
  Manual von Frey, threshold for paw withdrawal: 6.97
ZFD rats [2]; ZFD rats, 10 mg/kg s.c., 2 hr
  Manual von Frey, threshold for paw withdrawal: 13.47
ZFD rats [2]; ZFD rats, 10 mg/kg s.c., 4 hr
  Manual von Frey, threshold for paw withdrawal: 9.25
ZFD rats [3]
  pain responses in early or late phase of the formalin test: no effect
